# Results published in publication PMC6143143 (Biochemistry, 2018).
# Key:
# [1] = molecular target: MmCobD (MM2060 protein, full length) (Methanosarcina mazei, UniProt Q8PVB1); test: ADP-Glo ATPase inhibition assay; type: biochemical; conditions: MmCobD 6 μM, HEPES pH 7.5
# [2] = molecular target: T1, SeCobD (Salmonella enterica, UniProt P97084); test: […]-NMR and […] TLC decarboxylation assay; type: biochemical; conditions: decarboxylated to (R)-1-aminopropan-2-ol O-phosphate; pH 8.5
# T1 sequence (P97084 1-364): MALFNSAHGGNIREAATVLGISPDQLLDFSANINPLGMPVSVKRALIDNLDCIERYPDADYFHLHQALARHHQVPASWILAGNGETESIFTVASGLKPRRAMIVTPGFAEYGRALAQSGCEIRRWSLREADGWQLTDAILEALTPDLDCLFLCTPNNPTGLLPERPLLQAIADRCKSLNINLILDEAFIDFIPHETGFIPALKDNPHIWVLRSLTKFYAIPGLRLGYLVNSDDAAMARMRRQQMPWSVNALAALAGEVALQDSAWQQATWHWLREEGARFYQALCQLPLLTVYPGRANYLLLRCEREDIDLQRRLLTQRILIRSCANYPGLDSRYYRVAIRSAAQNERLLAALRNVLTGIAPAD
compound,measurement,setting,value
O=P(O)(O)OP(=O)(O)OP(=O)(O)O [PPPi],inhibition,[1]; inhibitor 10 mM,MmCobD was inhibited in the following order from most inhibitory to least: BeF2>ADP>ADP-γ-S>PPPi>Na3VO4
C[C@@H](OP(=O)(O)O)[C@H](N)C(=O)O [L-Thr-P],13C-NMR and 14C TLC decarboxylation assay,[2],"conversion of L-Thr-P (peaks A, B, C, D; red) to AP-P"
[O]=[V]([OH])([OH])[OH] [Na3VO4],inhibition,"[1]; inhibitor 1 mM, weakest of the series",MmCobD was inhibited in the following order from most inhibitory to least: BeF2>ADP>ADP-γ-S>PPPi>Na3VO4
